These results are taken from publication PMC8468663, “Co-Spray Dried Nafamostat Mesylate with Lecithin and Mannitol as Respirable Microparticles for Targeted Pulmonary Delivery: Pharmacokinetics and Lung Distribution in Rats” (Pharmaceutics, 2021).

Where a name gives a salt, the structure may show the parent alone.

The nature of one data set: in vivo. Set-up: species or system Sprague–Dawley rats. Conditions: rat, 10 mg/kg; for half-life: T½. As for the experimental part: The Chungbuk National University Institutional Animal Care and Use Committee approved the experimental protocols and animal care methods used in this study. The first in vivo experiment was a pharmacokinetic study to determine the efficacy of NFM based on the route of administration and to determine the effect of lecithin as a stabilizer. After preparing a 0.5% mannitol solution (w/v), NFM was added at a concentration of 25 mg mL^−1 to prepare solution A. In addition, Tween 80 was added to solution A at 1% (w/v), plus lecithin, which was added at a concentration of 25 mg mL^−1, and stirred to evenly disperse it to produce solution B. Each experiment was carried out using a male SD rat (8 weeks old, 230–250 g) in three groups of 16 animals each. The SD rats were fed a commercial pellet diet and fresh water and housed at room temperature (23 ± 1 °C) with a relative humidity of 50 ± 10%, and a 12 h light and dark cycle. First, the intravenous (IV) group was administered a 100 μL dose of solution A (10 mg·kg^−^1) intravenously through the lateral tail vein. Second, a 100 μL dose of solution A (10 mg kg^−^1) was administered by intratracheal instillation (ITI) to the intratracheal instillation-1 (ITI-1) group. Finally, the ITI-2 group was administered a 100 μL dose of solution B (10 mg·kg^−^1). For the analysis of plasma concentration, blood was collected via the orbital vein 1, 5, 10, 30, and 60 min after administration to each group (n = 4). Blood was collected in a heparin tube and gently shaken. Plasma was immediately separated from the blood samples by centrifugation at 3000 rpm for 2 min. After administration to each group (n = 12), 4 rats were sacrificed at 10, 30, and 60 min. BALF samples were obtained by injecting and extracting 5 mL DW into the lungs of the rats. Lung tissues were placed in 10 mL DW and homogenized at 18,000 rpm for 3 min using a homogenizer. Acetonitrile (ACN) was added to plasma, BALF, and lung tissue samples in a ratio of 1:1 (v/v) to precipitate the proteins, and the sample solutions were centrifuged at 18,000 rpm for 5 min to obtain a supernatant. The supernatant was quantified by HPLC analysis. A second in vivo experiment was performed to determine the efficacy of NFM microparticles in a DPI formulation, focusing on the lung lumen and tissue. First, the solution group was administered a solution at a dose of 0.25 mg NFM per rat by ITI (1 mg·kg^−^1). Second, the SD-NM group was treated using a dry powder insufflator for the intratracheal administration of the SD-NM in the form of DPI at a dose of 0.25 mg of NFM per rat (1 mg·kg^−^1). Finally, the SD-NLM group was administered an SD-NLM at a dose of 0.25 mg of NFM per rat (1 mg kg^−^1) using a dry powder insufflator. BALF and lung tissue samples were prepared using the same procedure as that used for the in vivo study described above. The samples were quantified by HPLC analysis.

Data set [1] relates to SARS-CoV-2 entry into host cells. Set-up: method as in PMID 32312781. Conditions: cited from earlier work.
For data set [2] the following is noted: cited from earlier work.
[3] abbreviates: male, Sprague-Dawley, Amount of NFM in BALF.
The mark [4] stands for this setting: male, Sprague-Dawley, inhaled or intranasal.

Broadly, the Tmax is the time at which the peak concentration occurs. Broadly, the Cmax is the peak of the concentration-time curve. Broadly, the AUC(0-inf) is total exposure, with the tail of the curve extrapolated. A lower AUC(0-inf) goes with low exposure. What is called half-life is the time in which the quantity being followed falls by half. For `N=C(N)c1ccc2cc(OC(=O)c3ccc(N=C(N)N)cc3)ccc2c1` [NFM, Nafamostat mesylate], the “Amount of NFM in BALF” value in the data set “in vivo” (male, Sprague-Dawley, 10 min) came to 4.48 µg/mL. The “Amount of NFM in BALF” value in “in vivo” (male, Sprague-Dawley, 30 min) came to 1.69 µg/mL. In the data set “in vivo” (setting [3]), the concentration at 10 min worked out at 2900 ng/mL and the concentration at 30 min was found to be 1690 ng/mL. In addition, the time of peak concentration (Tmax) in “in vivo” (male, Sprague-Dawley, Tmax) was 5 min. Also, in “in vivo” (setting [4]), the Cmax worked out at 22900 ± 4640 ng/mL, the Tmax is reported as 4.0 ± 1.00 min, the T½ was 28.6 ± 3.51 min and the AUC(0-inf) was 11200 ng·h/mL. This molecule also displayed a half-life in the data set “in vivo” (setting [4]) of 26.7 ± 2.6 min. Also, the concentration in “in vivo” (male, Sprague-Dawley, inhaled or intranasal, Cmax) peaked (Cmax) at 25900 ± 4230 ng/mL. In addition, in the data set “in vivo” (male, Sprague-Dawley, iv), the “AUC(inf)” value is 436.1 ± 31.59 µg·min/mL, the total exposure AUC(0-inf) was 7270 ng·h/mL and the half-life was determined as 13.2 ± 0.52 min. Moreover, the concentration at 10 min in the data set “in vivo” (male, Sprague-Dawley, iv, Amount of NFM in BALF) was determined as 960 ng/mL. Moreover, the highest level in the data set “in vivo” (male, Sprague-Dawley, iv, Cmax) (Cmax) was 43700 ± 7980 ng/mL. In “in vivo”, the “Amount of NFM in BALF” value is recorded as “still had remaining NFM in the BALF” and the “Amount of NFM in lung tissue” value was “some residual drug”. Further, in “in vivo” (iv), the “Amount of NFM in BALF” value was “There was no NFM in the BALF”; the “Half-life of ITI-1 and ITI-2 groups relative to IV group” value is reported as “approximately twice”. In data set [1], the “EC50, inhibition of SARS-CoV-2 entry into host cells” value is given as “low nanomolar range” and the “Efficiency of inhibition of SARS-CoV-2 entry relative to camostat mesylate” value is “approximately 15 fold”. For the same molecule, in data set [2], the “Half-life in human blood” value is on record as “approximately 3 min”.
